Results published in paper PMC6247689, “Determination of the volatile and polyphenol constituents and the antimicrobial, antioxidant, and tyrosinase inhibitory activities of the bioactive compounds from the by-product of Rosa rugosa Thunb. var. plena Regal tea” (BMC Complementary and Alternative Medicine, 2018).
≈ marks a conversion by molar mass, not a printed value. Where two headings read alike, the source gives them in different places.

Key:
[1] = test system: Listeria ivanovii (ATCC 19119); assay: MIC and MBC, broth microdilution; type: cell-based; conditions: L. ivanovii; for MIC: 37 °C, 24 h
Procedure: (§1) The antimicrobial activity was measured by the method described by Xue. All standard strains were obtained from the Guangdong Microbiology Culture Center (Guangzhou, China). Listeria ivanovii (ATCC 19119) was cultured in BHI, Salmonella enteritidis enteritidis (ATCC 14028) Staphylococcus aureus (ATCC 25923) and Escherichia coli (ATCC 25922) were cultured in nutrient agar (NA) for 24 h and at 37 °C. candida albicans (ATCC 10231) was cultured in PHB at 37 °C for 24 h. Propionibacterium acnes (ATCC 6919) and Fusobacterium nucleatum (ATCC 10953) were cultured in CDC agar at 37 °C for 48 h in a YQX-II anaerobic incubator (Shanghai, China). The final cell counts in l mL of broth were approximately 10^6 colony-forming units (CFU/mL). A 10 mg/mL solution of miconazole nitrate and hydrochloride tetracycline in water was used as a positive control against fungi and bacteria, respectly.
(§2) The MIC and MBC or MFC values were determined as described previously by Xue. Briefly, 100 μL dilutions (approximately 100,000 CFU/mL) of Staphylococcus aureus, Escherichia coli, Salmonella enteritidis enteritidis, Fusobacterium nucleatum, and Candida albicans in nutrient broth and Listeria ivanovii and Propionibacterium acnes in GMA broth were inoculated into microtiter plates. Then, 100 μL aliquots of the solutions of the test compound were added after a two-fold serial dilution with nutrient broth (from 2 mg/mL to 3 μg/mL). Broths with 5% (v/v) DMSO were used as controls. The petri dishes were incubated at 37 °C for 24 h with the exception of Propionibacterium acnes and Fusobacterium nucleatum, which were incubated at 37 °C for 48 h. The MIC was recorded as the lowest concentration of sample showing no detectable growth. To determine the MBC or MFC values for no bacterial or fungus growth, 10 μL of sub-inhibitory concentrations of the test compounds were incubated on CDC or GMA agar plates for 24 or 48 h. Every determination was carried out in triplicate.

[2] = test system: Fusobacterium nucleatum (ATCC 10953); assay: MIC and MBC, broth microdilution; type: cell-based; conditions: F. nucleatum; for MIC: anaerobic, 37 °C, 48 h
Procedure: as §1, §2

[3] = test system: Escherichia coli (ATCC 25922); assay: MIC and MBC, broth microdilution; type: cell-based; conditions: Escherichia coli, ATCC25922, E. coli; for MIC: 37 °C, 24 h, read-out: MIC; for MBC: read-out: MBC
Procedure: as §1, §2

[4] = test system: Staphylococcus aureus (ATCC 25923); assay: MIC and MBC, broth microdilution; type: cell-based; conditions: Staphylococcus aureus, ATCC25923, S. aureus; for MIC: 37 °C, 24 h, read-out: MIC; for MBC: read-out: MBC
Procedure: as §1, §2

[5] = test system: Salmonella enteritidis enteritidis (ATCC 14028); assay: MIC and MBC, broth microdilution; type: cell-based; conditions: S. enteritidis enteritidis; for MIC: 37 °C, 24 h; for MBC: read-out: MBC
Procedure: as §1, §2

[6] = test system: Propionibacterium acnes (ATCC 6919); assay: MIC and MBC, broth microdilution; type: cell-based; conditions: P. acnes; for MIC: anaerobic, 37 °C, 48 h; for MBC: read-out: MBC
Procedure: as §1, §2

[7] = DPPH radical scavenging activity; conditions: 30 min in the dark, 517 nm; positive control = ascorbic acid
Procedure: The antioxidant activity of RFCS and the standards were evaluated by DPPH radical scavenging activity using a slightly modified version of a previously reported method. […] Aliquots (100 μL) of the supernatants were transferred into a 96-well microplate, and the absorbance of each was recorded at 517 nm using a Spectramax Plus384 UV-Vis spectrophotometer (Molecular Devices, Sunnyvale, California, USA). […] The IC50 values, which represent the concentrations of rose samples and standard substance at which 50% of the DPPH radical was inhibited, were determined. The tests were performed in triplicate, and the percentage of DPPH scavenging was calculated using the following equation. Inhibition%=H0-H/H0×100 H:Absorbance of RFCS and the standards;H0:Absorbance of the blank

[8] = test system: candida albicans (ATCC 10231); assay: MIC and MFC, broth microdilution; type: cell-based; conditions: Candida albicans, ATCC10231, C. albicans; for MIC: 37 °C, 24 h, read-out: MIC; for MFC: read-out: MFC
Procedure: as §1, §2

ABTS radical scavenging = conditions: 30 °C, 30 min; positive control = Trolox
Procedure: The ABTS assay of RFCS was performed according to a modified version of a previously reported method. Briefly, the stock solutions were generated by mixing equal quantities of 7.4 mM ABTS^●+ solution and 2.6 mM potassium persulfate solution, and the mixture was incubated at room temperature for 12 h in the dark. Then, the solution was equilibrated with 1 mL of ABTS^●+ solution with 50% ethanol serving as a positive control. The absorbance of the solution at 734 nm was 1.17 ± 0.02 units. […] The mixture was mixed vigorously and incubated at 30 °C for 30 min. The absorbance was then measured at […] using the spectrophotometer. […] Inhibition%=Absorbance of blank-Absorbance of sample/Absorbance of blank×100

mushroom tyrosinase = assay: Tyrosinase inhibitory activity (spectrophotometric, DOPA substrate); type: biochemical; conditions: pH 6.8, 37 °C, 15 min, positive control = kojic acid
Procedure: The reaction mixture was vortexed and maintained at 37 °C for 15 min, and then the absorption maximum of dopachrome (set at 479 nm) was measured using a microplate reader (Molecular Devices, Sunnyvale, California, USA). The tests were performed in triplicate, and the value of tyrosinase inhibition activity was calculated as described above.

[9] = Listeria ivanovii, ATCC19119, read-out: MIC
[10] = Listeria ivanovii, ATCC19119, read-out: MBC
[11] = Fusobacterium nucleatum, ATCC10953, read-out: MIC
[12] = Fusobacterium nucleatum, ATCC10953, read-out: MBC
[13] = Salmonella enterica, read-out: MIC
[14] = Cutibacterium acnes, ATCC6919, read-out: MIC

MIC [1, 9] | MIC [2, 11] | MIC [3] | MIC [4] | MIC [5, 13] | MIC [6, 14] | DPPH radical scavenging activity IC50 [7] | MIC [8] | ABTS radical scavenging activity IC50 (ABTS radical scavenging) | Tyrosinase inhibition IC50 (mushroom tyrosinase) | Compound | MBC [1, 10] | MBC [2, 12] | MBC [3] | MBC [4] | MBC ([5]; Salmonella enterica) | MBC ([6]; Cutibacterium acnes, ATCC6919) | MFC [8] | further results
8 µg/mL (≈ 36 µM) | 8 µg/mL (≈ 36 µM) | 500 µg/mL (≈ 2250 µM) | 250 µg/mL (≈ 1120 µM) | 500 µg/mL (≈ 2250 µM) | 125 µg/mL (≈ 562 µM) | > 10,000 a μg/mL | 1000 µg/mL (≈ 4500 µM) | > 10,000 a μg/mL | 635 ± 22 a μg/mL | CC(C)=CCC[C@](C)(O)[C@@H]1CC=C(C)CC1 [α-bisabolol] | 32 µg/mL (≈ 144 µM) | 32 µg/mL (≈ 144 µM) | 1000 µg/mL (≈ 4500 µM) | 1000 µg/mL (≈ 4500 µM) | > 1000 µg/mL | 500 µg/mL (≈ 2250 µM) | > 1000 µg/mL | 
 |  |  |  |  |  |  | 8 µg/mL |  |  | Clc1ccc(COC(Cn2ccnc2)c2ccc(Cl)cc2Cl)c(Cl)c1 (stereo not drawn) [Miconazole Nitrate] |  |  | 16 µg/mL |  |  |  |  | 
250 µg/mL (≈ 2050 µM) | 8 µg/mL (≈ 65.5 µM) | 250 µg/mL (≈ 2050 µM) | 125 µg/mL (≈ 1020 µM) | 125 µg/mL (≈ 1020 µM) | 125 µg/mL (≈ 1020 µM) | > 10,000 a μg/mL | 250 µg/mL (≈ 2050 µM) | > 10,000 a μg/mL | 315 ± 13 b μg/mL | OCCc1ccccc1 [Phenylethyl alcohol] | 500 µg/mL (≈ 4090 µM) | 32 µg/mL (≈ 262 µM) | 1000 µg/mL (≈ 8190 µM) | 250 µg/mL (≈ 2050 µM) | 500 µg/mL (≈ 4090 µM) | 500 µg/mL (≈ 4090 µM) | 500 µg/mL (≈ 4090 µM) | 
 |  |  |  |  |  |  |  |  |  | CN(C)[C@@H]1C(=O)C(C(N)=O)=C(O)[C@@]2(O)C(=O)C3=C(O)c4c(O)cccc4[C@@](C)(O)[C@H]3C[C@@H]12.Cl [Hydrochloride tetracycline] |  |  |  |  |  |  |  | MBC [1]: < 0.1 µg/mL; MIC [1]: < 0.1 µg/mL; MBC [2]: 2 µg/mL; MIC [2]: 2 µg/mL; MIC [5]: 8 µg/mL; MIC [6]: 8 µg/mL
500 µg/mL (≈ 819 µM) | 62 µg/mL (≈ 102 µM) | 250 µg/mL (≈ 409 µM) | 250 µg/mL (≈ 409 µM) | 125 µg/mL (≈ 205 µM) | 125 µg/mL (≈ 205 µM) | 0.715 ± 0.017 c μg/mL | 500 µg/mL (≈ 819 µM) | 0.621 ± 0.024 c μg/mL | 0.856 ± 0.014 µg/mL | C[C@@H]1O[C@@H](OC[C@H]2O[C@@H](Oc3c(-c4ccc(O)c(O)c4)oc4cc(O)cc(O)c4c3=O)[C@H](O)[C@@H](O)[C@@H]2O)[C@H](O)[C@H](O)[C@H]1O [Rutin] | 1000 µg/mL (≈ 1640 µM) | 500 µg/mL (≈ 819 µM) | 1000 µg/mL (≈ 1640 µM) | 500 µg/mL (≈ 819 µM) | 500 µg/mL (≈ 819 µM) | 250 µg/mL (≈ 409 µM) | 1000 µg/mL (≈ 1640 µM) | Tyrosinase inhibition IC50 (mushroom tyrosinase; listed as rutin): < 1 µg/mL
